Our source for the Normal melting temperature values is the NIST ThermoML archive (doi:10.1016/j.tca.2014.06.017).

The conditions of the data set: Crystal; DTA.

Numbers after ± are expanded uncertainties.

As for `OC[C@@H](O)[C@@H](O)[C@H](O)[C@H](O)CO` [D-mannitol], the Normal melting temperature worked out at 162 ± 11 °C.
